From article PMC12040169 (PLOS Biology, 2025)

Assay: in vitro
Details: human, hela cells, % viability

Structure (SMILES)	viability at 28.5 h, 10 µM
CC1CCCCN1C(=O)CCn1c(C(F)F)cc2cccnc21 (stereo not shown) [CBK285024]	89.5%
O=C(CCn1c(C(F)F)cc2cccnc21)NCc1ccncc1 [CBK285027]	103%
CC(CC(=O)N1CCC(c2cc3cccnc3[nH]2)CC1)n1ccnc1 (stereo not shown) [CBK285028]	107%
Cc1[nH]ncc1CN1CCCC(c2cc3ccccc3cn2)C1 (stereo not shown) [CBK285029]	108%
CC(=O)NC(c1ccccn1)C1CCCN(C(=O)C2CCCCC2)C1 (stereo not shown) [CBK285031]	109%
CC(=O)NC(c1ccccn1)C1CCCN(C(=O)C2CC2C)C1 (stereo not shown) [CBK285032]	84.2%
CC(CC(=O)N1CCCC(c2cc3cccnc3[nH]2)C1)n1ccnc1 (stereo not shown) [CBK285034]	105%
CC(C)(C)C(=O)N1CCC(c2nc3ccccc3cc2N)CC1 [CBK285039]	101%
Cc1nn(C)cc1CN1CCCC(c2cc3ccccc3cn2)C1 (stereo not shown) [CBK285041]	108%
Cc1csc(C(Cc2ccsc2)NC(=O)c2c(C)noc2C)n1 (stereo not shown) [CBK285045]	102%
Cc1csc(C(Cc2ccsc2)NC(=O)CN2CCCC2=O)n1 (stereo not shown) [CBK285046]	81.9%
Cc1csc(C(Cc2cccs2)NCC2CCOC2)n1 (stereo not shown) [CBK285051]	110%
O=C(NC(Cc1cccs1)c1nccs1)c1cc[nH]n1 (stereo not shown) [CBK285052]	87.4%
O=C(NC(Cc1cccs1)c1nccs1)C1CCOC1 (stereo not shown) [CBK285054]	80.6%
Cc1csc(C(Cc2cccs2)NC(=O)C2CCC(=O)N2)n1 (stereo not shown) [CBK285056]	104%
CC(C)OC(=O)Cn1c(C2CCCNC2)cc2cccnc21 (stereo not shown) [CBK285058]	100%
O=C(Cn1c(C2CCCNC2)cc2cccnc21)NC1CCCC1 (stereo not shown) [CBK285059]	97.5%
O=C(CCn1c(C(F)F)cc2cccnc21)NCc1cccnc1 [CBK285066]	91.9%
CC(NC(=O)CCn1c(C(F)F)cc2cccnc21)c1ccncc1 (stereo not shown) [CBK285069]	91.6%
Cc1cc(NC(=O)CCn2c(C(F)F)cc3cccnc32)nn1C [CBK285071]	90.2%
CCn1nc(NC(=O)CCn2c(C(F)F)cc3cccnc32)cc1C [CBK285072]	83.8%
Cn1nccc1C(=O)N[C@H]1CCC[C@@H](c2c[nH]c3ccccc23)C1 [CBK285073]	93.6%
Cc1cc(C)n(CC(=O)N2CCCC2c2cc3cccnc3[nH]2)n1 (stereo not shown) [CBK285074]	97.1%
CC(C)OC(=O)Cn1c(C2CCNCC2)cc2cccnc21 [CBK285075]	99.9%

Structure (SMILES)	viability at 28.5 h, 10 µM
COc1cccc(Cn2c(C3CCNCC3)cc3cccnc32)c1 [CBK285076]	91.5%
COc1ccc(Cn2c(C3CCNCC3)cc3cccnc32)cc1 [CBK285077]	96.1%
CC1CCCN(Cc2c(C3CCNCC3)[nH]c3ncccc23)C1 (stereo not shown) [CBK285078]	78.5%
CN(Cc1c(C2CCNCC2)[nH]c2ncccc12)C1CCCCC1 [CBK285079]	93.3%
O=C(c1cccc(F)c1)N1CCCC1c1cc2cccnc2[nH]1 (stereo not shown) [CBK285081]	93.1%
COc1cccc(C(=O)N2CCCC2c2cc3cccnc3[nH]2)c1 (stereo not shown) [CBK285082]	96.4%
CN(Cc1ccccc1)Cc1c(C2CCNCC2)[nH]c2ncccc12 [CBK285083]	96%
CC1CCCN(Cc2c(C3CCNCC3)[nH]c3ncccc23)C1C (stereo not shown) [CBK285084]	89.1%
CCC(C)NC(=O)Cn1cccc2cc(C3CCCNC3)nc1-2 (stereo not shown) [CBK285087]	98.2%
O=C(Cn1cccc2cc(C3CCCNC3)nc1-2)N1CCCCCC1 (stereo not shown) [CBK285088]	93.2%
Cc1csc([C@H]2Cc3ccsc3[C@@H](C3CCOC3)N2)n1 (stereo partly shown) [CBK285089]	102%
CC1CC1C(=O)N1CCC(c2nc3ccccc3cc2N)CC1 (stereo not shown) [CBK285090]	98.8%
Cn1nc(C2CCN(Cc3ccccc3)CC2)c2cccnc21 [CBK285095]	94.9%
O=C(NC(Cc1ccsc1)c1nccs1)C1CC2C=CC1O2 (stereo not shown) [CBK285096]	91.9%
Cc1csc(C(Cc2ccsc2)NC(=O)Cc2ccccn2)n1 (stereo not shown) [CBK285097]	94.9%
Cc1csc(C(Cc2ccsc2)NC(=O)c2scnc2C)n1 (stereo not shown) [CBK285098]	106%
Cc1csc(C(Cc2ccsc2)NC(=O)CCc2ccno2)n1 (stereo not shown) [CBK285099]	100%
Cc1noc(C)c1C(=O)NC(Cc1ccsc1)c1cccnc1 (stereo not shown) [CBK285100]	90.3%
CC(=O)NC(c1ccccn1)C1CCCN(C(=O)C(C)(C)C)C1 (stereo not shown) [CBK285101]	91.6%
Cc1ccsc1C(=O)N1CCC(c2nn(C)c3ncccc23)CC1 [CBK285102]	96.6%
CC(=O)N1Cc2cc(C)ccc2OC2(CCCN(CC3CC3)C2)C1 (stereo not shown) [CBK285104]	88.7%
Cc1noc(C)c1C(=O)N1CCCCCC1c1nn(C)cc1Cl (stereo not shown) [CBK285106]	101%
Cc1csc(C(Cc2ccsc2)NC(=O)C2CC3C=CC2O3)n1 (stereo not shown) [CBK285108]	102%
CC1CCCN(Cc2c(C3CCCNC3)[nH]c3ncccc23)C1 (stereo not shown) [CBK285112]	70.3%

Structure (SMILES)	viability at 28.5 h, 10 µM
Cc1csc(C(Cc2ccsc2)NC(=O)Cn2ccnc2)n1 (stereo not shown) [CBK285113]	106%
Cn1cc(C(=O)NC(Cc2ccsc2)c2cccnc2)cn1 (stereo not shown) [CBK285118]	99.9%
Cn1cc(C2CCCCCN2C(=O)c2ccccc2F)cn1 (stereo not shown) [CBK285119]	107%
Cc1cc(C(=O)N2CCCCCC2c2nn(C)cc2Cl)on1 (stereo not shown) [CBK285121]	107%
Cc1csc(C(Cc2cccs2)NC(=O)C2CCOC2)n1 (stereo not shown) [CBK285123]	106%
Cc1cnc(C(=O)N[C@H]2C3CCCCC3[C@@H]2c2ccccc2)cn1 (stereo partly shown) [CBK285125]	102%
Cn1nccc1C(=O)N[C@H]1C2CCCCC2[C@@H]1c1ccccc1 (stereo partly shown) [CBK285127]	102%
Cc1nc(C)n(CC(=O)N[C@H]2C3CCCCC3[C@@H]2c2ccccc2)n1 (stereo partly shown) [CBK285128]	94.7%
Cn1cc(C(=O)N2CCc3ncc(Cl)cc3C2)ccc1=O [CBK285130]	100%
CN1Cc2ccccc2OC2(CCCN(C(=O)C3CC3)CC2)C1 (stereo not shown) [CBK285131]	110%
CC(C)C(=O)N1CCCC2(CC1)CN(C)Cc1ccccc1O2 (stereo not shown) [CBK285132]	103%
O=C(NC(Cc1cccs1)c1nccs1)c1cccnc1 (stereo not shown) [CBK285133]	98.3%
Cn1ccc(C(=O)NC(Cc2cccs2)c2nccs2)n1 (stereo not shown) [CBK285135]	91.4%
Cc1ccn(CCC(=O)NC(Cc2ccsc2)c2nccs2)n1 (stereo not shown) [CBK285137]	92.5%
Cn1nccc1C(=O)NC(Cc1ccsc1)c1nccs1 (stereo not shown) [CBK285138]	98.1%
CCc1nccn1CC(=O)NC(Cc1ccsc1)c1nccs1 (stereo not shown) [CBK285139]	111%
Cc1ccnn1C(C)C(=O)NC(Cc1ccsc1)c1nccs1 (stereo not shown) [CBK285141]	92.1%
CCc1onc(C)c1C(=O)NC(Cc1ccsc1)c1nccs1 (stereo not shown) [CBK285142]	94%
Cn1ccc(C(=O)NC(Cc2ccsc2)c2nccs2)cc1=O (stereo not shown) [CBK285143]	87%
Cc1cc(C[C@@H]2COC[C@H]2NCC(C)c2ccccc2)on1 (stereo partly shown) [CBK285145]	88.5%
CC(=O)NC(c1nccs1)C1CCCN(CC2CCCCC2)C1 (stereo not shown) [CBK285152]	95.1%
O=C(CCC1CCCO1)NC(Cc1ccsc1)c1cccnc1 (stereo not shown) [CBK285159]	87.6%
c1ccc([C@@H]2CN(Cc3ccncc3)C[C@H]2c2cc[nH]n2)cc1 [CBK285161]	88%
c1ccc([C@@H]2CN(Cc3ccccn3)C[C@H]2c2cc[nH]n2)cc1 [CBK285162]	105%

Structure (SMILES)	viability at 28.5 h, 10 µM
c1ccc([C@@H]2CN(CC3CCOC3)C[C@H]2c2cc[nH]n2)cc1 (stereo partly shown) [CBK285163]	110%
Cc1cnc2[nH]c(C3CCCN(C(=O)c4cccnc4)C3)cc2c1 (stereo not shown) [CBK285168]	86.1%
Cc1cnc2[nH]c(C3CCCN(C(=O)c4cccnc4C)C3)cc2c1 (stereo not shown) [CBK285169]	101%
CCN(CC)CC1CCCN(C(=O)CCn2ccc3ccncc32)C1 (stereo not shown) [CBK285174]	85.4%
COc1ccccc1CC(C)NC(=O)CCn1ccc2ccncc21 (stereo not shown) [CBK285175]	93.8%
Cc1ccc2nc(-c3ccc4c(c3)CCN4S(C)(=O)=O)cn2c1 [CBK285185]	96.6%
Cc1nc(C)c(C(=O)N2CCC(c3cc4c(C)cccc4cn3)CC2)o1 [CBK285186]	108%
Cn1ccnc1C1(O)C2CCCC1CN(Cc1ccc(F)c(F)c1)C2 (stereo not shown) [CBK285189]	95.1%
CS(=O)(=O)N1CCc2cc(-c3cn4ccccc4n3)ccc21 [CBK285190]	85.6%
CC(=O)N1c2ccc(-c3cn4ccc(C)cc4n3)cc2CC1C (stereo not shown) [CBK285191]	79.2%
Cc1cccc2cc3c(nc12)OCCN(C)C3 [CBK285192]	89.1%
CC(=O)N1c2ccc(-c3cn4cc(C)ccc4n3)cc2CC1C (stereo not shown) [CBK285195]	82.5%
Cc1cccc2cnc(C3CCN(C(=O)c4cnn(C)c4C)CC3)cc12 [CBK285196]	88.2%
Cc1cccc2cnc(C3CCN(C(=O)CCc4ccno4)CC3)cc12 [CBK285197]	81%
COCC(=O)N1CCC(c2nc(C)n3c(C)csc23)CC1 [CBK285198]	96.7%
Cc1nc(C2CCCN(C(=O)c3ccncc3)C2)c2sccn12 (stereo not shown) [CBK285199]	90.8%
CCOC(=O)Cn1ccc2ccnc(-c3cccs3)c21 [CBK285200]	107%
Cc1nc(C2CCN(C(=O)c3ccn(C)n3)CC2)c2sccn12 [CBK285202]	93.4%
Cc1nc(C2CCN(C(=O)c3ccnn3C)CC2)c2sccn12 [CBK285203]	90.3%
OC1(c2cccnc2)C2CCCC1CN(Cc1ccc(F)cc1)C2 (stereo not shown) [CBK285204]	89.8%
Cc1n[nH]c(C)c1CC(=O)NC(Cc1cccs1)c1ccccn1 (stereo not shown) [CBK285208]	111%
Cn1cc(C(=O)NC(Cc2cccs2)c2ccccn2)ccc1=O (stereo not shown) [CBK285209]	112%
